Assay results as given in patent EP2487171A1, “Dihydrobenzopyran, thiochroman, tetrahydroquinoleine and tetrahydronaphthalene derivatives and their use in anti-cancer therapy” (Université de Liège, priority 2011, dated 2012).

What was measured:
U373 = assay: MTT colorimetric assay, overall cell growth; type: cell-based; conditions: Homo sapiens, U373 MG; U373 cells, 72 hours of incubation; read-out: IC50 (µM) In Vitro Growth Inhibitory Concentrations (MTT Colorimetric Assay) U373
Description: (§1) The compounds and particularly dihydrobenzopyran, thiochroman, tetrahydroquinoleine and tetrahydronaphthalene derivatives of the invention were evaluated for their anti-proliferative effect (by means of the colorimetric MTT assay), in the following human glioblastoma cell-lines U373, T98G and Hs683 and in the mouse glioma cell line GL261. Normal brain cells (primocultures from newborn mice) were also used in order to determine the bioselectivity (B^N/C) of the compounds of interest, i.e. the ratio between the concentrations that inhibits 50% of the growth of brain cancer (C) cells (glioma cells) and the concentration that inhibits 50% of the growth of normal (N) brain cells (primocultures of astrocytes). The ideal situation to be reached is a bioselectivity of B^N/C > 10.
(§2) MTT tests were performed in order to rapidly, i.e. within 5 days, measure the effect of compounds of this invention on the overall cell growth. The test measured the number of metabolically active living cells that were able to transform the yellow product 3-(4,5-dimethylthiazol-2-yl)-2,5-diphenyl tetrazolium bromide (herein referred as MTT) into the blue product formazan dye by mitochondrial reduction. The amount of formazan obtained at the end of the experiment, measured by means of a spectrophotometer, is directly proportional to the number of living cells. Optical density determination thus enabled a quantitative measurement of the effect of the investigated compounds as compared to the control condition (untreated cells) and/or to other reference compounds.
(§3) Three human cancer cell lines were used in the following MTT tests.
(§4) To perform the assay, cells were allowed to grow in 96-well micro-wells with a flat bottom with an amount of 100 µl of cell suspension per well with 1,000 to 8,000 cells/well depending on the cell type used. Each cell line was seeded in its appropriate culture medium.
(§5) The detailed experimental procedure was the following: after a 24-hour period of incubation at 37°C, the culture medium was replaced by 100 µl of fresh medium in which the tested compound was previously dissolved, at the following molar concentrations: 10^-8 M, 5.10^-8 M, 10^-7 M, 5.10^-7 M, 10^-6 M, 5.10^-6 M, 10^-5 M, 5.10^-5 M and 10^-4 M. Each experiment was performed in sextuplicate (6 times).
(§6) After 72 hours of incubation at 37°C with (experimental conditions) or without (control condition) the compound to be tested, the medium was replaced by 100 µl MTT dissolved in RPMI (1640 without phenol red) at a concentration of 0.5 mg/ml. The micro-wells were subsequently incubated during 3 hours and a half at 37°C and centrifuged at 1300 rpm during 10 minutes. MTT was removed and formazan crystals formed were dissolved in 100 µl DMSO. The micro-wells were shaken for 5 minutes and read on a spectrophotometer at wavelengths of 570 nm (maximal formazan absorbance).
(§7) For each experimental condition, the mean optical density was calculated, allowing the determination of the percentage of remaining living cells in comparison to the control.

Hs683 = assay: MTT colorimetric assay, overall cell growth; type: cell-based; conditions: Homo sapiens, Hs 683; Hs683 cells, 72 hours of incubation; read-out: IC50 (µM) In Vitro Growth Inhibitory Concentrations (MTT Colorimetric Assay) Hs683
Description: as §1, §2, §3, §4, §5, §6, §7

[1] = test system: human U373 glioma cell line; assay: Quantitative videomicroscopy (computer-assisted phase-contrast microscopy); type: cell-based; conditions: U373 cells treated at the IC50 concentration from MTT, filmed for 72h; cytostatic versus cytotoxic effects
Description: In addition, the inventors could establish that the compounds of the invention act through a non-apoptosis-related mechanism thanks to a unique experimental approach used by the inventors, i.e. computer-assisted phase-contrast microscopy (quantitative videomicroscopy), making them good candidates as anti-cancer drugs for treating apoptosis-resistant tumor or cancer cells and for overcoming problems linked to the known anti-cancer drugs.
As the MTT test is based on the mitochondria functions, we also investigated the effects of the compounds according to the invention on cell proliferation, migration and morphology by means of a cellular imaging approach (Debeir et al., Cytometry 60:29-40, 2004; Debeir et al., IEEE Trans Med Imaging 24:697-711, 2005) in the human U373 glioma cell line, which is apoptosis-resistant but autophagy-sensitive (Lefranc F et al., Neurosurgery 2008).
Cellular imaging relied on the use of computer-assisted phase-contrast microscopy making possible to film the behaviour of living cells in culture dishes for several days.
Cells were seeded in a 25-cm^2 flask at a low density, treated or not with the compounds of the invention (at their IC50 concentration determined previously by MTT tests) and filmed thereafter for a period of 72h. The experiment was conducted in triplicate.
The behaviour of the cells, in terms of morphology, growth and death were thus investigated. The effect on the overall growth was measured by counting the number of cells on the first (0h) and the last image (72h) of each film. The global growth ratio (GGR) was then deduced by dividing the number of cells on the last image by the number of cells on the first image. The ratio GGRtreated cells / GGRcontrol cells, was further calculated thereby obtaining a value that describes the effect of compounds of the present invention on the overall cell growth.
The methodology is fully described and validated in Debeir et al., 2008, Exp Cell Res 314:2985-2998 and Mathieu et al., 2009, J Cell Mol Med, Feb 20, 2009.
Thanks to the quantitative videomicroscopy (QVM) approach, we classified the compounds into 4 distinctive classes on the basis of their cytostatic versus cytotoxic effects (Table 3). • Class I: actually cytostatic for 3 days (< 10 % of cell death at the 3rd day) • Class II: cytostatic but becomes cytotoxic with < 10% cell death on the 2nd day and > 20% of cell death on the 3rd day • Class III: cytostatic but rapidly becomes cytotoxic with < 10% cell death on the 1st day, > 20% of cell death on the 2nd day and > 50% of cell death on the 3rd day • Class IV: cytotoxic (> 50% of cell death on the first day)
In Fig. 1a, compounds of example 14 (5 µM), example 19 (20 µM) and example 23 (5 µM) belong to QVM Class I because they display cytostatic effects on human U373 GBM cells during the whole duration of the experiment. Cytostatic effects mean that < 10 % of cell death was recorded at the end of the experiment, i.e. at the end of the 3rd day. QVM analyses enable the global growth ratio (GGR) to be calculated in each experiment. The GGR index is obtained by dividing the number of cells in the last image by the number of cells in the first image of the experiment, knowing that 1080 images are taken during the 72 h-period of observation. The ratio GGR^treated cells / GGR^control cells was further calculated thereby obtaining a value that describes the effect of compounds on the overall cell growth. Thus, a GGR index of 0.2 means that they remain only 20% of treated cells compare to the control cells at the end of the experiment.

T98G = assay: MTT colorimetric assay, overall cell growth; conditions: Homo sapiens, 72 h, read-out: IC50 (µM) In Vitro Growth Inhibitory Concentrations (MTT Colorimetric Assay) T98G;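 further: growth inhibition of the human glioblastoma line measured by MTT reduction to formazan, optical density read on a spectrophotometer at 570 nm, untreated cells as control, nine concentrations from 10 nM to 100 µM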
Description: The compounds and particularly dihydrobenzopyran, thiochroman, tetrahydroquinoleine and tetrahydronaphthalene derivatives of the invention were evaluated for their anti-proliferative effect (by means of the colorimetric MTT assay), in the following human glioblastoma cell-lines U373, T98G and Hs683 and in the mouse glioma cell line GL261. Normal brain cells (primocultures from newborn mice) were also used in order to determine the bioselectivity (B^N/C) of the compounds of interest, i.e. the ratio between the concentrations that inhibits 50% of the growth of brain cancer (C) cells (glioma cells) and the concentration that inhibits 50% of the growth of normal (N) brain cells (primocultures of astrocytes).
as §2, §3, §4, §5
The micro-wells were subsequently incubated during 3 hours and a half at 37°C and centrifuged at 1300 rpm during 10 minutes. MTT was removed and formazan crystals formed were dissolved in 100 µl DMSO. The micro-wells were shaken for 5 minutes and read on a spectrophotometer at wavelengths of 570 nm (maximal formazan absorbance).
as §7

Structure (SMILES)	IC50 (U373) [µM]	IC50 (Hs683) [µM]	QVM Class [1]	IC50 (T98G) [µM]
CC(C)(C)OC(=O)Nc1ccc2c(c1)C(NC(=O)Nc1ccccc1C#N)CC(C)(C)O2 (racemic) [Example 36, R/S-N-2-cyanophenyl-N'-(6-tert-butoxycarbonylamino-3,4-dihydro-2,2-dimethyl-2H-1-benzopyran-4-yl)urea]	45	54	I (Class I: actually cytostatic for 3 days (< 10 % of cell death at the 3rd day))	67
CC(C)(C)OC(=O)Nc1ccc2c(c1)C(NC(=O)Nc1ccc(Br)cc1)CC(C)(C)O2 (racemic) [Example 34, R/S-N-4-bromophenyl-N'-(6-tert-butoxycarbonylamino-3,4-dihydro-2,2-dimethyl-2H-1-benzopyran-4-yl)urea]	22	21	III (Class III: cytostatic but rapidly becomes cytotoxic with < 10% cell death on the 1st day, > 20% of cell death on the 2nd day and > 50% of cell death on the 3rd day)	21
CC(C)(C)OC(=O)Nc1ccc2c(c1)C(NC(=O)Nc1ccc(C#N)cc1)CCO2 (racemic) [Example 6, R/S-N-4-cyanophenyl-N'-(6-tert-butoxycarbonylamino-3,4-dihydro-2H-1-benzopyran-4-yl)urea]	42	30	–	39
CC(C)(C)OC(=O)Nc1ccc2c(c1)C(NC(=O)Nc1ccc(Cl)cc1)CC(C)(C)O2 (racemic) [Example 17, R/S-N-4-chlorophenyl-N'-(6-tert-butoxycarbonylamino-3,4-dihydro-2,2-dimethyl-2H-1-benzopyran-4-yl)urea]	22	26	III (Class III: cytostatic but rapidly becomes cytotoxic with < 10% cell death on the 1st day, > 20% of cell death on the 2nd day and > 50% of cell death on the 3rd day)	26
CC(C)(C)OC(=O)Nc1ccc2c(c1)C(NC(=O)Nc1ccc(Cl)c(C(F)(F)F)c1)CC(C)(C)O2 (racemic) [Example 33, R/S-N-4-chloro-3-trifluoromethylphenyl-N'-(6-tert-butoxycarbonylamino-3,4-dihydro-2,2-dimethyl-2H-1-benzopyran-4-yl)urea]	21	22	III (Class III: cytostatic but rapidly becomes cytotoxic with < 10% cell death on the 1st day, > 20% of cell death on the 2nd day and > 50% of cell death on the 3rd day)	23
CC(C)(C)OC(=O)Nc1ccc2c(c1)C(NC(=O)Nc1ccc(C(F)(F)F)cc1Cl)CC(C)(C)O2 (racemic) [Example 30, R/S-N-2-chloro-4-trifluoromethylphenyl-N'-(6-tert-butoxycarbonylamino-3,4-dihydro-2,2-dimethyl-2H-1-benzopyran-4-yl)urea]	26	25	II (Class II: cytostatic but becomes cytotoxic with < 10% cell death on the 2nd day and > 20% of cell death on the 3rd day)	34
CC(C)(C)OC(=O)Nc1ccc2c(c1)C(NC(=O)Nc1cccc(Cl)c1)CCO2 (racemic) [Example 2, R/S-N-3-chlorophenyl-N'-(6-tert-butoxycarbonylamino-3,4-dihydro-2H-1-benzopyran-4-yl)urea]	19	28	–	29
CC(C)(C)OC(=O)Nc1ccc2c(c1)C(NC(=O)Nc1cc(C(F)(F)F)ccc1Cl)CC(C)(C)O2 (racemic) [Example 31, R/S-N-2-chloro-5-trifluoromethylphenyl-N'-(6-tert-butoxycarbonylamino-3,4-dihydro-2,2-dimethyl-2H-1-benzopyran-4-yl)urea]	15	12	II (Class II: cytostatic but becomes cytotoxic with < 10% cell death on the 2nd day and > 20% of cell death on the 3rd day)	38
CC(C)(C)OC(=O)Nc1ccc2c(c1)C(NC(=O)Nc1ccccc1Cl)CC(C)(C)O2 (racemic) [Example 35, R/S-N-2-chlorophenyl-N'-(6-tert-butoxycarbonylamino-3,4-dihydro-2,2-dimethyl-2H-1-benzopyran-4-yl)urea]	59	34	–	100
CC(C)(C)OC(=O)Nc1ccc2c(c1)C(NC(=O)Nc1ccccc1C#N)CCO2 (racemic) [Example 4, R/S-N-2-cyanophenyl-N'-(6-tert-butoxycarbonylamino-3,4-dihydro-2H-1-benzopyran-4-yl)urea]	53	44	–	65
CC(C)(C)OC(=O)Nc1ccc2c(c1)C(NC(=O)Nc1ccccc1Cl)CCO2 (racemic) [Example 1, R/S-N-2-chlorophenyl-N'-(6-tert-butoxycarbonylamino-3,4-dihydro-2H-1-benzopyran-4-yl)urea]	26	23	–	24
CC(C)(C)OC(=O)Nc1ccc2c(c1)C(NC(=O)Nc1cccc(C#N)c1)CCO2 (racemic) [Example 5, R/S-N-3-cyanophenyl-N'-(6-tert-butoxycarbonylamino-3,4-dihydro-2H-1-benzopyran-4-yl)urea]	29	25	–	38
CC(C)(C)OC(=O)Nc1ccc2c(c1)C(NC(=O)Nc1cccc(Br)c1)CC(C)(C)O2 (racemic) [Example 20, R/S-N-3-bromophenyl-N'-(6-tert-butoxycarbonylamino-3,4-dihydro-2,2-dimethyl-2H-1-benzopyran-4-yl)urea]	22	18	III (Class III: cytostatic but rapidly becomes cytotoxic with < 10% cell death on the 1st day, > 20% of cell death on the 2nd day and > 50% of cell death on the 3rd day)	26
CC(C)(C)OC(=O)Nc1ccc2c(c1)C(NC(=O)Nc1ccc([N+](=O)[O-])cc1)CC(C)(C)O2 (racemic) [Example 22, R/S-N-4-nitrophenyl-N'-(6-tert-butoxycarbonylamino-3,4-dihydro-2,2-dimethyl-2H-1-benzopyran-4-yl)urea]	24	20	IV (Class IV: cytotoxic (> 50% of cell death on the first day))	26
CC(C)(C)OC(=O)Nc1ccc2c(c1)C(NC(=O)Nc1cccc(F)c1)CC(C)(C)O2 (racemic) [Example 19, R/S-N-3-fluorophenyl-N'-(6-tert-butoxycarbonylamino-3,4-dihydro-2,2-dimethyl-2H-1-benzopyran-4-yl)urea]	20	19	I (Class I: actually cytostatic for 3 days (< 10 % of cell death at the 3rd day))	26
CC(C)(C)OC(=O)Nc1ccc2c(c1)C(NC(=O)Nc1ccc(Cl)cc1)CCO2 (racemic) [Example 3, R/S-N-4-chlorophenyl-N'-(6-tert-butoxycarbonylamino-3,4-dihydro-2H-1-benzopyran-4-yl)urea]	11	> 100	–	> 100
CC(C)(C)OC(=O)Nc1ccc2c(c1)C(NC(=O)Nc1c(Cl)cccc1C(F)(F)F)CC(C)(C)O2 (racemic) [Example 32, R/S-N-2-chloro-6-trifluoromethylphenyl-N'-(6-tert-butoxycarbonylamino-3,4-dihydro-2,2-dimethyl-2H-1-benzopyran-4-yl)urea]	60	66	III (Class III: cytostatic but rapidly becomes cytotoxic with < 10% cell death on the 1st day, > 20% of cell death on the 2nd day and > 50% of cell death on the 3rd day)	60
